# Measurements: patent EP0589484A1, “1,2-Ethanediol derivative and salt thereof, process for producing the same, and cerebral function-improving agent comprising the same” (TOYAMA CHEMICAL CO., LTD., priority 1989, dated 1990)
# Where a name gives a salt, the structure may show the parent alone. Read-outs that look alike come from different tables or passages of the source.
# What was measured:
# [1] = tested on: ddY male mice; test: Acute toxicity; format: in vivo, mouse; details: 50 mg/kg intravenously, group of 3 ddY male mice
# Text: A test compound dissolved in physiological saline was intravenously administered to a group of 3 ddY male mice (5-6 weeks old) to examine the acute toxicity of the test compound.
# [2] = tested on: ddY female mouse; test: Effect of test compound on hypoxia (antihypoxic activity); format: in vivo; details: po, read-out: Antihypoxic activity (%)
# Description: A test compound dissolved in physiological saline (100 mg/kg) was orally administered to a ddY female mouse (5-6 weeks old, each group consisting of 10 mice). After 1 (or 30 minutes*) hour from the administration, each mouse was placed in a 300-ml glass chamber, and a gas mixture consisting of 4% of oxygen and 96% of nitrogen was passed through the chamber at a rate of 5 liters/min. A time from the start of gas passing to the death of each mouse was measured.
# To a control mice group was orally administered only physiological saline.
# The antihypoxic activity of the test compound was calculated from the following formula: [formula]
# [3] = molecular target: T1, acetylcholinesterase (Mus musculus, UniProt P21836); test: Inhibitory activity for acetylcholinesterase (method of Ellman et al.); format: biochemical; details: final concentration of the test compound 10 µg/ml; mouse cerebral homogenate; read-out: Inhibition (%)
# T1 construct: a mouse cerebral homogenate (as an acetylcholinesterase source); from tissue; host or cells: mouse cerebrum (homogenate)
# Description: A test was conducted in accordance with the method of Ellman et al. [Biochem. Pharmacol., vol. 7, pp. 88-95, 1961].
# That is, acetylthiocholine (as a substrate) was added to a phosphate buffer solution containing 5,5'-dithiobis-(2-nitrobenzoic acid) (DTNB), a test compound and a mouse cerebral homogenate (as an acetylcholinesterase source). The resulting mixture was incubated, and the amount of the resulting 5-thio-2-nitrobenzoic acid was photometrically measured at 412 nm.
# The inhibitory activity for acetylcholinesterase of the test compound was expressed by the inhibition (%) when the final concentration of the test compound was 10 µg/ml.
# [4] = 100 mg/kg orally, placed in chamber (4% oxygen, 96% nitrogen) after 1 hour from the administration, survival time relative to control
# [5] = 0.5 h, 100 mg/kg orally, placed in chamber (4% oxygen, 96% nitrogen) after 30 minutes from the administration (values marked *), survival time relative to control
# T1 sequence (P21836 32-614): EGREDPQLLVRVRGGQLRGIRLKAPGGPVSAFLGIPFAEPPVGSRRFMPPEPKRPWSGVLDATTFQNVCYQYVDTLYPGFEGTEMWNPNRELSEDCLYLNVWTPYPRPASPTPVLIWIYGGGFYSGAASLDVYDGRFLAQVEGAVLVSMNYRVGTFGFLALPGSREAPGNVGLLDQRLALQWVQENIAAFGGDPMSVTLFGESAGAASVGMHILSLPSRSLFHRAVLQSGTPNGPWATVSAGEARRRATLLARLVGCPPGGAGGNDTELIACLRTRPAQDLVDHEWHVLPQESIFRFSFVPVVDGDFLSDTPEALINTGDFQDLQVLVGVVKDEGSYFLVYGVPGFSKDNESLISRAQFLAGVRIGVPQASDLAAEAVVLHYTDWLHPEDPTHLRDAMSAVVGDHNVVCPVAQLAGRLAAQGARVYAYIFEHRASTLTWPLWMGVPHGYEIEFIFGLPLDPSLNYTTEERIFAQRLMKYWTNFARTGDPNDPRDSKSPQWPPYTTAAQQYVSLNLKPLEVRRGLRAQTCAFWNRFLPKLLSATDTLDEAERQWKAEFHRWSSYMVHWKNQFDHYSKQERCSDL
Compound,Acute toxicity [1],"response vs control in vivo at 100 mg/kg [2, 5] [%]",further results
"CN(C)CCOCC(O)c1cccc(F)c1.Cl (centres unmarked) [Compound No. 1, 2-[2-(N,N-dimethylamino)ethoxy]-1-(3-fluorophenyl)ethanol hydrochloride]",no death case,–,response vs control in vivo at 100 mg/kg ([2]; 1 h): 155%
"CN(C)CCOCC(O)c1cccc(C(F)(F)F)c1.Cl (centres unmarked) [Compound No. 42, 2-[2-(N,N-dimethylamino)ethoxy]-1-(3-trifluoromethylphenyl)ethanol hydrochloride]",no death case,–,response vs control in vivo at 100 mg/kg ([2]; 1 h): 194%
"CN(C)CCOCC(O)c1ccc(OCc2ccccc2)cc1 (centres unmarked) [Compound No. 48, 1-(4-benzyloxyphenyl)-2-[2-(N,N-dimethylamino)ethoxy]ethanol hydrochloride]",–,–,response vs control in vivo at 100 mg/kg ([2]; 1 h): 160%; inhibition at 10 µg/mL [3]: 51%
CN(C)CCOCC(O)c1ccccc1 (centres unmarked) [compound 2],no death case,–,"response vs control in vivo at 100 mg/kg [2, 4]: 119%"
CN(C)CCOC[C@H](O)c1ccccc1 [compound 3],no death case,245,–
O=C1CCCN1CCOCC(O)c1ccccc1 (centres unmarked) [compound 9],no death case,–,"response vs control in vivo at 100 mg/kg [2, 4]: 113%"
"Cc1cccc(C(O)COCCN(C)C)c1.Cl (centres unmarked) [compound 15, 2-[2-(N,N-dimethylamino)ethoxy]-1-(3-methylphenyl)ethanol hydrochloride]",no death case,–,response vs control in vivo at 100 mg/kg ([2]; 0.5 h): 194%
Cc1ccc(C(O)COCCN(C)C)cc1 (centres unmarked) [compound 16],no death case,–,"response vs control in vivo at 100 mg/kg [2, 4]: 116%"
CN(C)CCOCC(O)c1ccc(Cl)cc1 (centres unmarked) [compound 33],no death case,224,–
CSc1ccc(C(O)COCCN(C)C)cc1 (centres unmarked) [compound 46],no death case,150,–
OC(COCCC1CCN(Cc2ccccc2)CC1)c1ccccc1 (centres unmarked) [compound 60],–,–,inhibition at 10 µg/mL [3]: 71%
Cc1cc(C)cc(Oc2ccc(C(O)COCCN(C)C)cc2)c1 (centres unmarked) [compound 72],–,–,inhibition at 10 µg/mL [3]: 92%
CN(C)CCOCC(O)c1ccc(Oc2ccccc2)c(F)c1 (centres unmarked) [compound 73],–,–,inhibition at 10 µg/mL [3]: 89%
OC(COCCC1CCN(Cc2ccccc2)CC1)c1ccc(Oc2ccccc2)cc1 (centres unmarked) [compound 78],–,–,inhibition at 10 µg/mL [3]: 90%
CCN(CC)CCOCC(O)c1cccc(C)c1 (centres unmarked) [compound 90],–,–,inhibition at 10 µg/mL [3]: 52%
CN(C)CCOC[C@H](O)c1ccc(OCc2ccccc2)cc1 [compound 103],–,–,inhibition at 10 µg/mL [3]: 36%
"OC(COC1CCN(Cc2ccccc2)CC1)c1ccccc1 (centres unmarked) [compound 113, 2-(1-benzylpiperidin-4-yloxy)-1-phenylethanol hydrochloride]",–,–,inhibition at 10 µg/mL [3]: 45%
Cn1cnc(COCC(O)c2ccccc2)c1 (centres unmarked) [compound 119],no death case,175,–
OC(COCc1cccnc1)c1ccccc1 (centres unmarked) [compound 120],no death case,162,–

Compound,Acute toxicity [1],"response vs control in vivo at 100 mg/kg [2, 5] [%]",further results
OC(COCc1cccnc1)c1cccc(Cl)c1 (centres unmarked) [compound 126],no death case,172,–
OC(COCc1c[nH]cn1)c1ccccc1 (centres unmarked) [compound 132],no death case,133,–
"OC(COCC1CNCCO1)c1ccccc1 (centres unmarked) [compound 151, 1-phenyl-2-[(morpholin-2-yl)methoxy]ethanol]",no death case,–,"response vs control in vivo at 100 mg/kg [2, 4]: 182%"
OC(COCCN1CCc2ccccc2C1)c1ccccc1 (centres unmarked) [compound 165],–,–,inhibition at 10 µg/mL [3]: 24%
Cc1cccc(C(O)COCCC2CCNCC2)c1 (centres unmarked) [compound 176],no death case,–,–
"CC(=O)OC(COCCN1CCOCC1)c1cccc(C)c1 (centres unmarked) [compound 178, 1-acetoxy-1-(3-methylphenyl)-2-[2-(morpholin-4-yl)ethoxy]ethane]",no death case,–,–
CN(C)CCOCC(O)c1ccc2c(c1)OCCO2 (centres unmarked) [compound 194],no death case,–,–
OC(COCCNC1CC1)c1ccccc1 (centres unmarked) [compound 209],no death case,148,–
"O[C@@H](COC[C@@H]1CNCCO1)c1ccccc1 [compound 219, (1R,2'S)-1-phenyl-2-[(morpholin-2-yl)methoxy]ethanol maleate]",no death case,222,–
"O[C@H](COC[C@H]1CNCCO1)c1ccccc1 [compound 220, (1S,2'R)-1-phenyl-2-[(morpholin-2-yl)methoxy]ethanol maleate]",no death case,183,–
"O[C@@H](COC[C@H]1CNCCO1)c1ccccc1 [compound 221, (1R,2'R)-1-phenyl-2-[(morpholin-2-yl)methoxy]ethanol oxalate]",no death case,183,–
"CN(C)CCOCC(O)c1ccc2ccccc2c1.Cl (centres unmarked) [compound 229, 2-[2-(N,N-dimethylamino)ethoxy]-1-(2-naphthyl)ethanol hydrochloride]",no death case,–,response vs control in vivo at 100 mg/kg ([2]; 1 h): 123%
CN(C)CCCOCC(O)c1cccc2ccccc12 (centres unmarked) [compound 233],–,–,inhibition at 10 µg/mL [3]: 59%
Cc1ccc2cc(C(O)COCCN(C)C)ccc2c1 (centres unmarked) [compound 235],no death case,–,–
COc1ccc2cc(C(O)COCCN(C)C)ccc2c1 (centres unmarked) [compound 236],no death case,–,"response vs control in vivo at 100 mg/kg [2, 4]: 177%"
CN(CCOCC(O)c1cccc2ccccc12)Cc1ccccc1 (centres unmarked) [compound 241],–,–,inhibition at 10 µg/mL [3]: 31%
CN(C)CCOCC(O)c1ccc2c(c1)CCCC2 (centres unmarked) [compound 251],no death case,186,–
"OC(COCC1CNCCO1)c1ccc2ccccc2c1 (centres unmarked) [compound 256, 1-(2-naphthyl)-2-[(morpholin-2-yl)methoxy]ethanol 1/2 fumarate]",no death case,–,"response vs control in vivo at 100 mg/kg [2, 4]: 154%"
OC(COCc1cnc[nH]1)c1cccc2ccccc12 (centres unmarked) [compound 279],no death case,–,"response vs control in vivo at 100 mg/kg [2, 4]: 198%"

Compound,Acute toxicity [1],"response vs control in vivo at 100 mg/kg [2, 5] [%]",further results
"Cn1cncc1COCC(O)c1cccc2ccccc12 (centres unmarked) [compound 283, 2-(1-methylimidazol-5-yl)methoxy-1-(1-naphthyl)ethanol]",no death case,–,"response vs control in vivo at 100 mg/kg [2, 4]: 183%"
"CN(C)CCOCC(O)c1ccc2sccc2c1.Cl (centres unmarked) [compound 312, 1-(benzo[b]thiophen-5-yl)-2-[2-(N,N-dimethylamino)ethoxy]ethanol hydrochloride]",no death case,–,response vs control in vivo at 100 mg/kg ([2]; 0.5 h): 221%
CN(C)CCOCC(O)c1cccs1 (centres unmarked) [compound 313],no death case,154,–
CN(C)CCOCC(O)c1cccnc1 (centres unmarked) [compound 315],no death case,–,–
CN(C)CCOCC(O)c1ccoc1 (centres unmarked) [compound 316],no death case,–,–
CN(C)CCOCC(O)c1ccc2c(c1)CC(=O)N2 (centres unmarked) [compound 322],–,–,inhibition at 10 µg/mL [3]: 20%
CN(C)CCOCC(O)c1ccc2occc2c1 (centres unmarked) [compound 325],no death case,217,–
OC(COCCN1CCOCC1)c1ccc2sccc2c1 (centres unmarked) [compound 327],no death case,160,–
CN(C)CCOCC(O)c1ccc2c(c1)CCN2 (centres unmarked) [compound 329],–,–,inhibition at 10 µg/mL [3]: 45%
CN(C)CCCCOCC(O)c1ccc2sccc2c1 (centres unmarked) [compound 337],no death case,309,–
O=C1CCc2cc(C(O)COCc3cccnc3)ccc2N1 (centres unmarked) [compound 341],–,–,inhibition at 10 µg/mL [3]: 61%
OC(COCCN1CCN(c2ncccn2)CC1)c1ccc2sccc2c1 (centres unmarked) [compound 352],–,–,inhibition at 10 µg/mL [3]: 26%
"Cl.O=C(NCCOCC(O)c1ccc2sccc2c1)c1cccnc1 (centres unmarked) [compound 360, 1-(benzo[b]thiophen-5-yl)-2-[2-(nicotinoylamino)ethoxy]ethanol hydrochloride]",no death case,–,–
CN(C)CCOCC(O)c1ccc(Cl)s1 (centres unmarked) [compound 368],no death case,135,–
NCCOCC(O)c1ccc2occc2c1 (centres unmarked) [compound 369],no death case,143,–
CN(C)CCOCC(O)c1nccn1Cc1ccccc1 (centres unmarked) [compound 372],–,–,inhibition at 10 µg/mL [3]: 30%
CNCCOCC(O)c1cc2ccccc2s1 (centres unmarked) [compound 375],no death case,156,–
Cc1ccc2sc(C(O)COCCN(C)C)cc2c1 (centres unmarked) [compound 385],no death case,161,–
CN(C)CCCOCC(O)c1ccc2occc2c1 (centres unmarked) [compound 390],no death case,248,–
